Consider 31 compounds from patent US12336981B2, “Compounds and compositions for the inhibition of NAMPT” (Valo Health, Inc., priority 2010, dated 2025).

Read-outs that look alike come from different tables or passages of the source.

The target of one experiment is T1, NAMPT (Homo sapiens, UniProt P43490).
T1 construct: His tag; host or cells: E. coli
As to the kind of experiment: Biochemical inhibition assay: NAMPT enzymatic reaction, NMN quantified by mass spectrometry. To be noted: read-out: Biochem IC50. In short, it runs like this: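 Inhibition of E. coli-expressed His-tagged human NAMPT, measured as NMN formation by mass spectrometry after a 30 min room-temperature reaction containing 1 μM NAM, 100 μM PRPP and 2.5 mM ATP.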

The test system of another experiment is A2780 cells. The experiment can be described thus: In-vitro cell proliferation assay (SRB), A2780 cells. To be noted: Homo sapiens, A2780, 72 h, A2780 cells, 72 hours, read-out: A2780 IC50. The format is cell-based. In short, it runs like this:
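Growth inhibition was derived from background-corrected SRB absorbance (570 nm), measured on cells fixed in 6% TCA after three days of compound treatment under 5% CO2 at 37° C.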

T1 sequence (P43490 whole entry): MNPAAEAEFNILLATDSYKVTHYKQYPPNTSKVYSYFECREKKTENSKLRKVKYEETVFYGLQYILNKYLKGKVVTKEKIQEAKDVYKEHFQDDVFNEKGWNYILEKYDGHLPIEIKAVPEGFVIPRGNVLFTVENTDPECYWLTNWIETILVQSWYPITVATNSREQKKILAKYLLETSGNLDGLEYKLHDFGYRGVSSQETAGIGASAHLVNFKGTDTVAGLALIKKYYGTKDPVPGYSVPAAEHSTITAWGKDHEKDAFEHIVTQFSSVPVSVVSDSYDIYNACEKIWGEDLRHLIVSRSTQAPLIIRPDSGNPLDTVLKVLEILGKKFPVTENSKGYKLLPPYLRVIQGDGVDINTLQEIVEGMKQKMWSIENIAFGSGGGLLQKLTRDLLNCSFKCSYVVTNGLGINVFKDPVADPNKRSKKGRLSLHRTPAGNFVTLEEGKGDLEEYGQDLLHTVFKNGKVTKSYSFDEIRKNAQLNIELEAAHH

`O=C(NCc1ccc(S(=O)(=O)c2cccc3c2Oc2ccccc2S3)cc1)c1cc2ccncc2s1` [N-{[4-(phenoxathiine-4-sulfonyl)phenyl]methyl}thieno[2,3-c]pyridine-2-carboxamide]: the half-inhibitory concentration (IC50) at NAMPT (NAMPT enzymatic reaction) came out at 4 nM; in the experiment with A2780 cells (SRB assay), 1.7 nM.
As for `Cc1cc(C)cc(S(=O)(=O)c2ccc(CNC(=O)c3cnc4[nH]ncc4c3)cc2)c1`, the half-maximal inhibitory concentration (IC50) is 10.4 nM at NAMPT (NAMPT enzymatic reaction) and 6.1 nM in the experiment with A2780 cells (SRB).
Taken in the same sequence, the figures for `O=C(NCc1ccc(S(=O)(=O)c2ccc(-c3ccccc3)cc2)cc1)c1cc2ccncc2o1` [N-({4-[(4-phenylbenzene)sulfonyl]phenyl}methyl)furo[2,3-c]pyridine-2-carboxamide] were 3.7 nM and 6.9 nM.
As to `CS(=O)(=O)c1ccccc1S(=O)(=O)c1ccc(CNC(=O)c2cnc3[nH]ncc3c2)cc1`, the IC50 at NAMPT (NAMPT enzymatic reaction) was 202 nM; with A2780 cells (SRB) it was 100 to 1000 nM.
With `Cc1cc(S(=O)(=O)c2ccc(CNC(=O)c3cnc4[nH]ncc4c3)cc2)c(C)cc1F` [N-({4-[(4-fluoro-2,5-dimethylbenzene)sulfonyl]phenyl}methyl)-1H-pyrazolo[3,4-b]pyridine-5-carboxamide], the IC50 stood at 37.3 nM on NAMPT (NAMPT enzymatic reaction) and 45.9 nM in the experiment on A2780 cells (SRB).
For `O=C(NCc1ccc(S(=O)(=O)c2cccc(-c3ccccc3)c2)cc1)c1cnc2nccn2c1`, the 50% inhibitory concentration (IC50) at NAMPT (NAMPT enzymatic reaction) was determined as 0.9 nM; in the experiment on A2780 cells (SRB) it was 3.3 nM.
Take `COc1cc(Cl)c(C)cc1NS(=O)(=O)c1ccc(CNC(=O)c2cc3cnccc3[nH]2)cc1` [N-({4-[(4-chloro-2-methoxy-5-methylphenyl)sulfamoyl]phenyl}methyl)-1H-pyrrolo[3,2-c]pyridine-2-carboxamide]: the IC50 at NAMPT (NAMPT enzymatic reaction) turned out to be 7840 nM; with A2780 cells (SRB assay) it was 18300 nM.
With `Cc1ccc(S(=O)(=O)c2ccc(CNC(=O)c3cc4ccncc4s3)cc2)cn1` [N-{[4-(6-methylpyridine-3-sulfonyl)phenyl]methyl}thieno[2,3-c]pyridine-2-carboxamide], the values for the IC50 on NAMPT (NAMPT enzymatic assay) and in the experiment with A2780 cells (SRB) were 22 nM and 6.3 nM, respectively.
`CN(C)c1ncc(S(=O)(=O)c2ccc(CNC(=O)c3cc4cnccc4[nH]3)cc2)cn1` [N-({4-[2-(dimethylamino)pyrimidine-5-sulfonyl]phenyl}methyl)-1H-pyrrolo[3,2-c]pyridine-2-carboxamide]: the figures for the IC50 at NAMPT (NAMPT enzymatic assay) and with A2780 cells (SRB) were 19 nM and 3.5 nM, respectively.
Regarding `O=C(NCc1ccc(S(=O)(=O)c2cc(Cl)cc(Cl)c2)cc1)c1cnc2[nH]ncc2c1`, the IC50 at NAMPT (NAMPT enzymatic reaction) came out at 6.7 nM; in the experiment with A2780 cells (SRB), 2.1 nM.
In the case of `CCCOc1ccc(Cl)cc1S(=O)(=O)c1ccc(CNC(=O)c2cc3ccncc3o2)cc1`, the 50% inhibitory concentration (IC50) on NAMPT (NAMPT enzymatic reaction) came out at 8 nM; with A2780 cells (SRB), 9.3 nM.
On to `Cc1ccncc1S(=O)(=O)c1ccc(CNC(=O)c2cnc3[nH]ncc3c2)cc1` [N-{[4-(4-methylpyridine-3-sulfonyl)phenyl]methyl}-1H-pyrazolo[3,4-b]pyridine-5-carboxamide], for which the IC50 is 100 to 1000 nM at NAMPT (NAMPT enzymatic assay) and 271 nM in the experiment on A2780 cells (SRB).
The like results for `CCNC(=O)c1ccc(S(=O)(=O)c2ccc(CNC(=O)c3ccc4nccn4c3)cc2)cc1` were, in that order, 12 nM and 6.3 nM.
Take `CN(C)c1ccc(S(=O)(=O)c2ccc(CNC(=O)c3cc4cnccc4[nH]3)cc2)cn1` [N-({4-[6-(dimethylamino)pyridine-3-sulfonyl]phenyl}methyl)-1H-pyrrolo[3,2-c]pyridine-2-carboxamide]: the IC50 at NAMPT (NAMPT enzymatic assay) amounted to 20.9 nM; in the experiment on A2780 cells (SRB), 3.4 nM.
In the case of `CCCCOc1cc(F)ccc1S(=O)(=O)c1ccc(CNC(=O)c2cnc3nccn3c2)cc1`, the values for the IC50 at NAMPT (NAMPT enzymatic reaction) and in the experiment with A2780 cells (SRB) were 7.3 nM and 73.8 nM, respectively.
For the compound `CN(C)c1cnc(S(=O)(=O)c2ccc(CNC(=O)c3ccc4nccn4c3)cc2)cn1` [N-({4-[5-(dimethylamino)pyrazine-2-sulfonyl]phenyl}methyl)imidazo[1,2-a]pyridine-6-carboxamide], the concentration for half-maximal inhibition (IC50) was 16 nM at NAMPT (NAMPT enzymatic assay) and 3.6 nM in the experiment with A2780 cells (SRB).
Turning to `O=C(NCc1ccc(S(=O)(=O)c2ccc3nc(C(F)(F)F)cn3c2)cc1)c1cc2ccncc2s1` [N-({4-[2-(trifluoromethyl)imidazo[1,2-a]pyridine-6-sulfonyl]phenyl}methyl)thieno[2,3-c]pyridine-2-carboxamide], the values for the half-inhibitory concentration (IC50) at NAMPT (NAMPT enzymatic assay) and in the experiment with A2780 cells (SRB) were 3.1 nM and 3.9 nM, respectively.
Turning to `O=C(NCc1ccc(S(=O)(=O)c2ccccc2)cc1)N1CCc2ncccc2C1` [N-{[4-(benzenesulfonyl)phenyl]methyl}-5,6,7,8-tetrahydro-1,6-naphthyridine-6-carboxamide], the half-inhibitory concentration (IC50) is 544 nM at NAMPT (NAMPT enzymatic reaction) and > 2000 nM with A2780 cells (SRB assay).
Take `CC(C)c1ccc(S(=O)(=O)c2ccc(CNC(=O)c3cc4ccncc4o3)cc2)cc1`: the half-inhibitory concentration (IC50) on NAMPT (NAMPT enzymatic assay) came to 11.9 nM; in the experiment with A2780 cells (SRB), 8 nM.
In the case of `COc1c(C)cc(S(=O)(=O)c2ccc(CNC(=O)c3cc4ccncc4s3)cc2)cc1C`, the figures for the IC50 at NAMPT (NAMPT enzymatic reaction) and in the experiment with A2780 cells (SRB) were 9.8 nM and 0.9 nM, respectively.
In the case of `CC(=O)c1ccccc1S(=O)(=O)c1ccc(CNC(=O)c2cnc3nccn3c2)cc1`, the 50% inhibitory concentration (IC50) came to 2.5 nM on NAMPT (NAMPT enzymatic reaction) and 8.2 nM in the experiment on A2780 cells (SRB).
The like results for `CC(=O)c1ccc(S(=O)(=O)c2ccc(CNC(=O)c3cnc4[nH]ncc4c3)cc2)cc1` were, in that order, 28.9 nM and 3.7 nM.
As to `Cc1ccc(S(=O)(=O)c2ccc(CNC(=O)c3cc4cnccc4[nH]3)cc2)cc1F` [N-({4-[(3-fluoro-4-methylbenzene)sulfonyl]phenyl}methyl)-1H-pyrrolo[3,2-c]pyridine-2-carboxamide], the IC50 on NAMPT (NAMPT enzymatic reaction) was 8 nM; with A2780 cells (SRB assay) it was 6 nM.
Regarding `O=C(NCc1ccc(S(=O)(=O)c2ccc(OC(F)(F)F)c(F)c2)cc1)c1cnc2nccn2c1`, the half-inhibitory concentration (IC50) at NAMPT (NAMPT enzymatic assay) is 4 nM; in the experiment on A2780 cells (SRB) it was 11.8 nM.
The like results for `CC(C)COc1cccc(S(=O)(=O)c2ccc(CNC(=O)c3cnc4nccn4c3)cc2)c1` were, in that order, 3.9 nM and 13.2 nM.
`CCOc1cc(S(=O)(=O)c2ccc(CNC(=O)c3cnc4nccn4c3)cc2)ccc1F` [N-({4-[(3-ethoxy-4-fluorobenzene)sulfonyl]phenyl}methyl)imidazo[1,2-a]pyrimidine-6-carboxamide]: the figures for the IC50 at NAMPT (NAMPT enzymatic reaction) and in the experiment with A2780 cells (SRB) were 0.3 nM and 7.8 nM, respectively.
As for `Cn1ncc2cccc(S(=O)(=O)c3ccc(CNC(=O)c4cnc5nccn5c4)cc3)c21` [N-{[4-(1-methyl-1H-indazole-7-sulfonyl)phenyl]methyl}imidazo[1,2-a]pyrimidine-6-carboxamide], the 50% inhibitory concentration (IC50) on NAMPT (NAMPT enzymatic assay) is 23.3 nM; in the experiment with A2780 cells (SRB), 100 to 1000 nM.
Consider `O=C(NCc1ccc(S(=O)(=O)c2ccc(C(F)(F)F)cc2)cc1)c1cc2cnccc2[nH]1` [N-[(4-{[4-(trifluoromethyl)benzene]sulfonyl}phenyl)methyl]-1H-pyrrolo[3,2-c]pyridine-2-carboxamide], for which the IC50 at NAMPT (NAMPT enzymatic reaction) was determined as 24 nM; in the experiment with A2780 cells (SRB assay), 26 nM.
For `O=C(NCc1ccc(S(=O)(=O)CCCCc2ccccc2)cc1)c1cc2cnccc2[nH]1` [N-({4-[(4-phenylbutane)sulfonyl]phenyl}methyl)-1H-pyrrolo[3,2-c]pyridine-2-carboxamide], the IC50 at NAMPT (NAMPT enzymatic reaction) amounted to 216 nM; in the experiment with A2780 cells (SRB) it was 71.5 nM.
As for `CCCOc1ccc(S(=O)(=O)c2ccc(CNC(=O)c3cc4ccncc4s3)cc2)cc1F`, the half-maximal inhibitory concentration (IC50) is 3.7 nM at NAMPT (NAMPT enzymatic reaction) and 8.1 nM with A2780 cells (SRB).
For `O=C(NCc1ccc(S(=O)(=O)c2ccc(Cl)cc2C(F)(F)F)cc1)c1cc2ccncc2s1`, the IC50 at NAMPT (NAMPT enzymatic assay) was found to be 7 nM; with A2780 cells (SRB), 9.6 nM.
